How the values were obtained:
[1] = biological target: Sodium channel protein type 10 subunit alpha (Homo sapiens, UniProt Q9Y5Y9); assay: In Vitro Assay (Protocol 1)
Experimental: (§1) Compounds of Formula (I), were diluted in eight concentrations in the extracellular solution composed of physiological saline, buffered with HEPES (mM): NaCl, 137; KCl, 4; CaCl2, 3.8; MgCl2, 1; HEPES, 10; Glucose, 10; pH 7.4. The […], 50; CsF, 90; MgCl2, 5; EGTA, 5; HEPES, 10; pH 7.2. The duration of exposure of each compound with the cells expressing Nav 1.7 or Nav 1.8 was at least five minutes and the assays were performed at room temperature.The measurements of the sodium currents of Nav 1.8 and Nav 1.7 were obtained using the voltage protocols described below:Protocol 1: A holding voltage of −90 mV was established followed by a voltage phase of 200 ms to −120 mV, followed by a voltage step of 10 mV for 1 second for Nav 1.8 or 0 mV for Nav 1.7, followed by a step of −100 mV for 20 ms, followed by a step of 20 ms for 10 mV for Nav 1.8 or 0 mV for Nav 1.7 (TP1A) before returning to the holding voltage of −90 mV.Protocol 2: A holding voltage of −100 mV was established followed by an inactivation voltage step at −40 mV for 8 seconds, followed by a −100 mV step for […], followed by a 20 ms step for 10 mV for Nav 1.8 or 0 mV for Nav 1.7 (TP1A) before returning to the holding voltage of −100 mV.Protocols were repeated at a frequency of 0.1 Hz and current amplitude was quantified over the TP1A phase log. The variation in the peak amplitude of the current was evaluated according to the Formula described below, after exposure of the cells expressing the channels, at each concentration of the different compounds:%Block=(1-(ITP1A,molecule/ITP1A,basal)×100%,where |TP1A, basal, and |TP1A, molecule represent the entry peaks of sodium currents into TP1A prior to exposure to the compound and in the presence of the compound, respectively.

[2] = biological target: Sodium channel protein type 9 subunit alpha (Homo sapiens, UniProt Q15858); assay: In Vitro Assay (Protocol 1)
Sequence of Sodium channel protein type 9 subunit alpha (Q15858 whole entry): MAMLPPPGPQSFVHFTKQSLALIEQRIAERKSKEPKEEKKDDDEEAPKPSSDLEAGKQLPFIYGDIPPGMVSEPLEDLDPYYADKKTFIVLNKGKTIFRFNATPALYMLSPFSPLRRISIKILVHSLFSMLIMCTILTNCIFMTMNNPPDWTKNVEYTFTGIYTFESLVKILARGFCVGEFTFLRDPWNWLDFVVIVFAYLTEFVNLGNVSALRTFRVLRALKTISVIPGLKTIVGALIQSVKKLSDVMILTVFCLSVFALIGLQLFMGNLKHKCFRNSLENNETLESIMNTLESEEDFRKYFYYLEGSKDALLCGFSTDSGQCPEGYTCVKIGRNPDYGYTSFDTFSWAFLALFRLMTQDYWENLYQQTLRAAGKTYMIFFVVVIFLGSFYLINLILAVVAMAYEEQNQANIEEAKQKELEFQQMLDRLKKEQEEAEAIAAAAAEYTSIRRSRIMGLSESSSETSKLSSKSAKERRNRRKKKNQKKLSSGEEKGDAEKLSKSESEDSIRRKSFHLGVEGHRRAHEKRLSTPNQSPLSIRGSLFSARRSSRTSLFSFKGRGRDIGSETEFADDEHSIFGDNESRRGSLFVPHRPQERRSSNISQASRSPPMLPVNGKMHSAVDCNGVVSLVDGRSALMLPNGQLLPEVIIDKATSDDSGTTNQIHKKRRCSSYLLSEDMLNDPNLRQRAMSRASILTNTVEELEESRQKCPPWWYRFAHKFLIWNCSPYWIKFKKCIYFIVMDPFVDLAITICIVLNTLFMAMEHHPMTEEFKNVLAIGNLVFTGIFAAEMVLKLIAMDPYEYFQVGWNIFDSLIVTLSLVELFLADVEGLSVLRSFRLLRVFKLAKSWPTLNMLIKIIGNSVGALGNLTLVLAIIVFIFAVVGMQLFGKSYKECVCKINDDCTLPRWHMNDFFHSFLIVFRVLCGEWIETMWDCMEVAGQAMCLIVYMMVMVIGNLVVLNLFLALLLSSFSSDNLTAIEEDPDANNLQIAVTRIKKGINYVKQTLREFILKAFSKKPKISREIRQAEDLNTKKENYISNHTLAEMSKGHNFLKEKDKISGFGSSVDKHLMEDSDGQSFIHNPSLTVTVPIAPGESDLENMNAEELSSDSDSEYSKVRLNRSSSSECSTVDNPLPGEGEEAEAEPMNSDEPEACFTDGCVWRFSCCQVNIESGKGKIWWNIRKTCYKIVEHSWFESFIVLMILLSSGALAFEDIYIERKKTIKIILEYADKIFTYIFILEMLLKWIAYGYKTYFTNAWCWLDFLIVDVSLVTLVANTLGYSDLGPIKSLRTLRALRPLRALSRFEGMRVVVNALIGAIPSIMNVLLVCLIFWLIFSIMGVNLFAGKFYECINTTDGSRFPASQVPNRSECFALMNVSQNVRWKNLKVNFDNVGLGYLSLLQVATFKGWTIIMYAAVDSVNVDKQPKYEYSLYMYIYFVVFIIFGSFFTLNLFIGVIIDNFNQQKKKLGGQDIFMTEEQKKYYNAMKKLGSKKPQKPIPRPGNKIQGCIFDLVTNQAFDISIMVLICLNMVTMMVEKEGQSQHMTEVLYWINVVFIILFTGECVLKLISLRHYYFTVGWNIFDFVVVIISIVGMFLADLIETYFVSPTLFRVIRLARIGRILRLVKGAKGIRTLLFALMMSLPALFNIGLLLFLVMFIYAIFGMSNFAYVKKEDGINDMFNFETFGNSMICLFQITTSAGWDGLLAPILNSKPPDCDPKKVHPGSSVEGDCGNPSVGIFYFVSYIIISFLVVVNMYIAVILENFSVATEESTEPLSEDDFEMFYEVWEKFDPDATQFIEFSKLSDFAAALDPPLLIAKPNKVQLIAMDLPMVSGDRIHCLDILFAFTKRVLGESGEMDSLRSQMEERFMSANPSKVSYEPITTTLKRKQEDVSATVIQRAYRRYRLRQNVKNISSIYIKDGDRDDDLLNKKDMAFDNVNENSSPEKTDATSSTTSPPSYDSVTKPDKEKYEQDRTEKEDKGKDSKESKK
Experimental: as §1

Sequence of Sodium channel protein type 10 subunit alpha (Q9Y5Y9 whole entry): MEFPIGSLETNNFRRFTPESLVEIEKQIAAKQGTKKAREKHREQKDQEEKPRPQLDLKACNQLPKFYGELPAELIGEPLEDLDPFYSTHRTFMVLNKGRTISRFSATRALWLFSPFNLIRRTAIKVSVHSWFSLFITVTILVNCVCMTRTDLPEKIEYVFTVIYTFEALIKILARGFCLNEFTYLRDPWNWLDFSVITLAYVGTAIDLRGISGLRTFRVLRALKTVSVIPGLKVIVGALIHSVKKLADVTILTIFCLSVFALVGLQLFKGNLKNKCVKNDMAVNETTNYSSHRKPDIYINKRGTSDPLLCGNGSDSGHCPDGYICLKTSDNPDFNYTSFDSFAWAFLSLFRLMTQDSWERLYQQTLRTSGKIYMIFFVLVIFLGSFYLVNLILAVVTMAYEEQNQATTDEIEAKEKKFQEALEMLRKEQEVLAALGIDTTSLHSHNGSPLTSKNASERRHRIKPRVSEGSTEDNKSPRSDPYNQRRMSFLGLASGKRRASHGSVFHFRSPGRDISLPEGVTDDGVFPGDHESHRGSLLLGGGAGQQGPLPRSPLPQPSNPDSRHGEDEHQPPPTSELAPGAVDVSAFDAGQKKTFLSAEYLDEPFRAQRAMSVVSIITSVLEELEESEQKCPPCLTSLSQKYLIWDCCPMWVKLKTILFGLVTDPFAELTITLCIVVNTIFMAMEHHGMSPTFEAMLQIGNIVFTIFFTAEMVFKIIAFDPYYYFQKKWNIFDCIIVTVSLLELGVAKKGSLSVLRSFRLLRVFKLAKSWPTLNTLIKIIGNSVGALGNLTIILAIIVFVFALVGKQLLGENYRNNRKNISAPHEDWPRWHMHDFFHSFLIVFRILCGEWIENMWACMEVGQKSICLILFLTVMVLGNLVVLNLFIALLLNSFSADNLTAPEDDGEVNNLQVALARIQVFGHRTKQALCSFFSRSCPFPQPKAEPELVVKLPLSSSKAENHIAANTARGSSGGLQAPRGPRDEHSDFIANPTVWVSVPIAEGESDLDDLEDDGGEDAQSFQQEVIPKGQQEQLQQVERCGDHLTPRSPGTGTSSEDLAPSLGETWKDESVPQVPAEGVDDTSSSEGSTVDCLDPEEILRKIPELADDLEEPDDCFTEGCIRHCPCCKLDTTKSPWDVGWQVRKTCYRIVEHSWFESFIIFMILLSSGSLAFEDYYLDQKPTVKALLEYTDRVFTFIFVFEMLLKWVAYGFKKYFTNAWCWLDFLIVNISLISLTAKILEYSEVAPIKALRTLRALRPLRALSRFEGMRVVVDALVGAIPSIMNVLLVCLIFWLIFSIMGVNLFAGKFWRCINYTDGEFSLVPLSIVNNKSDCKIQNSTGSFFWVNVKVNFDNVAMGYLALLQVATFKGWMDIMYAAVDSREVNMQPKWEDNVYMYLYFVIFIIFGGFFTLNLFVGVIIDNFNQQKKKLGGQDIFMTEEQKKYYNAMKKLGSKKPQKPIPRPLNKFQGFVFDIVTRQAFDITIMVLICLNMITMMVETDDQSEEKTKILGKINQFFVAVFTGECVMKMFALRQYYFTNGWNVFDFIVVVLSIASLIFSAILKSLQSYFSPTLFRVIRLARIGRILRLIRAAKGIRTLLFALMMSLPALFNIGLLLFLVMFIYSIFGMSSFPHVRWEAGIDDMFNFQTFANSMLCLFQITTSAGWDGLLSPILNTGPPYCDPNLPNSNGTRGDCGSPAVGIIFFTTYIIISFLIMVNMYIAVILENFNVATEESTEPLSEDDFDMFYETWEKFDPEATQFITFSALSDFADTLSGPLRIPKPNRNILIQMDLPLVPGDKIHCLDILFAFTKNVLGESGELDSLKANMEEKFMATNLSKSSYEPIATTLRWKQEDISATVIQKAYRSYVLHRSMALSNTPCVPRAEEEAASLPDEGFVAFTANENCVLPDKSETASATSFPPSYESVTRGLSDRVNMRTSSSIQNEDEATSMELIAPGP

| IC50 [1] [nM] | IC50 [2] [nM] | SMILES |
| --- | --- | --- |
| > 30000 | > 30000 | O=C(N/N=C/c1cccs1)c1ccc(-c2ccc(Cl)cc2)o1 [US20240335420, Compound 1] |
| 1370 | 362 | COc1cc(/C=N/NC(=O)c2cccc(-c3ccc(Cl)cc3)n2)cc(OC)c1 [US20240335420, Compound 10] |

— BindingDB's records for patent US20240335420 (Eurofarma, 2024)
